Experiments:
Assay type in all cases: biochemical
[1] = tested on: citrated normal human plasma; assay: Activated Partial Thromboplastin Time (aPTT) plasma clotting assay; settings: inhibitor concentration required to increase the clotting time by 1.5 times
Text: The effectiveness of compounds of the present invention as inhibitors of coagulation can be determined using a standard or modified clotting assay. An increase in the plasma clotting time in the presence of inhibitor is indicative of anticoagulation. Relative clotting time is the clotting time in the presence of an inhibitor divided by the clotting time in the absence of an inhibitor. The results of this assay may be expressed as IC1.5× or IC2×, the inhibitor concentration required to increase the clotting time by 1.5 times or 2 times, respectively, relative to the clotting time in the absence of the inhibitor. The IC1.5× or IC2× is found by linear interpolation from relative clotting time versus inhibitor concentration plots using inhibitor concentrations that span the IC1.5× or IC2×.
Clotting times are determined using citrated normal human plasma as well as plasma obtained from a number of laboratory animal species (e.g., rat, or rabbit). A compound is diluted into plasma beginning with a 10 mM DMSO stock solution. The final concentration of DMSO is less than 2%. Plasma clotting assays are performed in an automated coagulation analyzer (Sysmex, Dade-Behring, Illinois). Similarly, clotting times can be determined from laboratory animal species or humans dosed with compounds of the invention.
Activated Partial Thromboplastin Time (aPTT) is determined using ACTIN® FSL (Dade-Behring, Illinois) following the directions in the package insert. Plasma (0.05 mL) is warmed to 37° C. for 1 minute. ACTIN® FSL (0.05 mL) is added to the plasma and incubated for an additional 2 to 5 minutes. Calcium chloride (25 mM, 0.05 mL) is added to the reaction to initiate coagulation. The clotting time is the time in seconds from the moment calcium chloride is added until a clot is detected.

[2] = molecular target: T1, purified human Factor XIa (Homo sapiens, UniProt P03951); assay: Factor XIa enzyme inhibition assay (chromogenic substrate S-2366), Ki; settings: substrate S-2366, pH 7.4
T1 construct: purchased Haematologic Technologies
Outline: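 Purified human Factor XIa ([…] final) with chromogenic substrate S-2366 (0.0002-0.001 M) in 50 mM HEPES pH 7.4, 145 mM NaCl, 5 mM KCl, 0.1% PEG 8000. Velocities measured over 20-180 minutes with and without inhibitor; Ki derived assuming competitive inhibition, e.g. Ki=IC50/(1+S/Km).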

[3] = molecular target: T2, purified human plasma kallikrein (Homo sapiens, UniProt P03952); assay: Plasma kallikrein enzyme inhibition assay (chromogenic substrate S-2302), Ki; settings: substrate S-2302, pH 7.5
T2 construct: purchased Enzyme Research Laboratories
Method: The effectiveness of compounds of the present invention as inhibitors of the coagulation Factors XIa, VIIa, IXa, Xa, XIIa, plasma kallikrein, thrombin, chemytrypsin or trypsin can be determined using a relevant purified serine protease, respectively, and an appropriate synthetic substrate. The rate of hydrolysis of the chromogenic or fluorogenic substrate by the relevant serine protease was measured both in the absence and presence of compounds of the present invention. […] A decrease in the rate of absorbance or fluorescence change in the presence of inhibitor is indicative of enzyme inhibition. Such methods are known to one skilled in the art. The results of this assay are expressed as the inhibitory constant, Ki.
Plasma kallikrein determinations were made in 0.1 M sodium phosphate buffer at a pH of 7.5 containing 0.1-0.2 M sodium chloride and 0.5% PEG 8000. Determinations were made using purified human plasma kallikrein (Enzyme Research Laboratories) at a final assay concentration of […] and the synthetic substrate S-2302 (H-(D)-Pro-Phe-Arg-pNA; CHROMOGENIX®) at a concentration of 0.00008-0.0004 M.
Values of Ki were determined by allowing the protease to react with the substrate in the presence of the inhibitor. Reactions were allowed to go for periods of 20-180 minutes (depending on the protease) and the velocities (rate of absorbance or fluorescence change versus time) were measured. The following relationships were used to calculate Ki values: (Vmax*S)/(Km+S) (vo−vs)/vs=I/(Ki*(1+S/Km)) for a competitive inhibitor with one binding site; or vs/vo=A+(B−A)/(1+(IC50/(I)^n)); and Ki=IC50/(1+S/Km) for a competitive inhibitor where: […]

T2 sequence (P03952 391-638 limits assumed): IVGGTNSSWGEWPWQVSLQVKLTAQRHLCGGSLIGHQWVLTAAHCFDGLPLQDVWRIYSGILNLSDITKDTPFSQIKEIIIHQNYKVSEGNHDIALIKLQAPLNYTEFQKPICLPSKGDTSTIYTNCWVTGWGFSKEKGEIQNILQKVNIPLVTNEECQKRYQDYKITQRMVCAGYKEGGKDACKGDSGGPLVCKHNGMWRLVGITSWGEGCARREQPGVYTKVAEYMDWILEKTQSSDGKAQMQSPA
T2 sequence (P03952 20-390 partner limits assumed): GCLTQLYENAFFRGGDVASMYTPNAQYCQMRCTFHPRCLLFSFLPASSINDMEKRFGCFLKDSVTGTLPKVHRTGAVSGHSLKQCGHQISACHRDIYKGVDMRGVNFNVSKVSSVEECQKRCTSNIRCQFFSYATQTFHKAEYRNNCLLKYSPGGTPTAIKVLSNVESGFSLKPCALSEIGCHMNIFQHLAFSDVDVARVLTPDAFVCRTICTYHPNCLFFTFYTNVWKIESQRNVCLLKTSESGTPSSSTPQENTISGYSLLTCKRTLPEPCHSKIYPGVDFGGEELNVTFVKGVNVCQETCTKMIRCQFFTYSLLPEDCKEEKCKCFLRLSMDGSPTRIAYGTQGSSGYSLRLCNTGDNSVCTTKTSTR
T1 sequence (P03951 388-625 limits assumed): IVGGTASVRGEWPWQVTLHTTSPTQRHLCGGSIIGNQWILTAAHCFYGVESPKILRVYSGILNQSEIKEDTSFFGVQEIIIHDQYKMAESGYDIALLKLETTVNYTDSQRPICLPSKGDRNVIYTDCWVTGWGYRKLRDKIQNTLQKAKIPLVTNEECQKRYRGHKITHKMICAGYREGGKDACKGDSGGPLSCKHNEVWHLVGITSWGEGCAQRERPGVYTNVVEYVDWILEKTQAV
T1 sequence (P03951 19-387 partner limits assumed): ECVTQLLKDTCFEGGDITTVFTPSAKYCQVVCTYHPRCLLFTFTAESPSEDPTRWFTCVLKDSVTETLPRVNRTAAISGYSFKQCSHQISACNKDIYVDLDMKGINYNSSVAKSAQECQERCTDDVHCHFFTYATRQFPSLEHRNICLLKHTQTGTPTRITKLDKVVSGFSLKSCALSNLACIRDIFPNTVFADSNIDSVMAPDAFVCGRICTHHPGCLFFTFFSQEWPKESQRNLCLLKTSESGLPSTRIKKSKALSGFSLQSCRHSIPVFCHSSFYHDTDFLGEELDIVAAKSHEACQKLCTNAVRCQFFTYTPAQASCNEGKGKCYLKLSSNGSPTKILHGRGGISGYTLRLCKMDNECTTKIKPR

| SMILES | Ki [2] | Ki [3] | aPTT (IC1.5×) [1] |
| --- | --- | --- | --- |
| O=C(O)c1ccc(NC(=O)[C@H](Cc2ccc(NC(=O)C3CC3)cc2)N2CCC(c3cc(Cl)ccc3-n3cc(Cl)nn3)=CC2=O)cc1 [Example 141, (S)-4-(2-(4-(5-chloro-2-(4-chloro-1H-1,2,3-triazol-1-yl)phenyl)-6-oxo-3,6-dihydropyridin-1(2H)-yl)-3-(4-(cyclopropanecarboxamido)phenyl)propanamido)benzoic Acid] | 0.92 nM |  | 2.05 µM |
| O=C(Nc1ccc2cn[nH]c2c1)[C@H](Cc1ccccc1)n1cnc(-c2cc(Cl)ccc2-n2cc(Cl)nn2)cc1=O [Example 17, (S)-2-(4-(5-chloro-2-(4-chloro-1H-1,2,3-triazol-1-yl)phenyl)-6-oxopyrimidin-1(6H)-yl)-N-(1H-indazol-6-yl)-3-phenylpropanamide] | 16 nM | 166 nM | 17.6 µM |
| O=C(Nc1ccc2nccnc2c1)[C@H](Cc1ccccc1)n1cnc(-c2cc(Cl)ccc2-n2cc(Cl)nn2)cc1=O [Example 30, (S)-2-(4-(5-chloro-2-(4-chloro-1H-1,2,3-triazol-1-yl)phenyl)-6-oxopyrimidin-1(6H)-yl)-3-phenyl-N-(quinoxalin-6-yl)propanamide] | 6.44 nM |  | 15.2 µM |
| O=C1Cc2cc(NC(=O)[C@H](Cc3ccccc3)n3cnc(-c4cc(Cl)ccc4-n4cc(Cl)nn4)cc3=O)ccc2N1 [Example 23, (S)-2-(4-(5-chloro-2-(4-chloro-1H-1,2,3-triazol-1-yl)phenyl)-6-oxopyrimidin-1(6H)-yl)-N-(2-oxoindolin-5-yl)-3-phenylpropanamide] | 6.6 nM |  | 8.0 µM |
| O=C(O)c1ccc(NC(=O)[C@H](Cc2ccccc2)N2CCC(c3cc(Cl)ccc3-n3cc(Cl)nn3)=CC2=O)cc1 [Example 142, (S)-4-(2-(4-(5-chloro-2-(4-chloro-1H-1,2,3-triazol-1-yl)phenyl)-6-oxo-3,6-dihydropyridin-1(2H)-yl)-3-phenylpropanamido)benzoic Acid] | 1.73 nM |  | 2.39 µM |
| O=C(O)c1ccc(NC(=O)[C@H](Cc2ccccc2)n2cnc(-c3cc(Cl)ccc3-n3cc(Cl)nn3)cc2=O)cc1 [Example 15, (S)-4-(2-(4-(5-chloro-2-(4-chloro-1H-1,2,3-triazol-1-yl)phenyl)-6-oxopyrimidin-1(6H)-yl)-3-phenylpropanamido)benzoic Acid] | 2.5 nM | 189 nM | 1.74 µM |
| Cc1c(CC(C(=O)Nc2ccc(C(=O)O)cc2)N2CCC(c3c(F)ccc(Cl)c3F)=CC2=O)ccc2cn[nH]c12 (stereo not drawn) [Example 135, 4-(2-(4-(3-chloro-2,6-difluorophenyl)-6-oxo-3,6-dihydropyridin-1(2H)-yl)-3-(7-methyl-1H-indazol-6-yl)propanamido)benzoic Acid] | 199 nM | 1870 nM | 1.74 µM |
| O=C(O)c1ccc(NC(=O)[C@H](Cc2ccccc2)n2cnc(-c3cc(Cl)ccc3-n3cc(C(F)(F)F)nn3)cc2=O)cc1 [Example 14, (S)-4-(2-(4-(5-chloro-2-(4-(trifluoromethyl)-1H-1,2,3-triazol-1-yl)phenyl)-6-oxopyrimidin-1(6H)-yl)-3-phenylpropanamido)benzoic Acid] | 3.1 nM | 239 nM | 1.85 µM |

More lines, in order of falling Ki [2], values ahead:

| Ki [2] | Ki [3] | SMILES | aPTT (IC1.5×) [1] |
| --- | --- | --- | --- |
| 19.8 nM |  | O=C(Nc1ccc2c(=O)[nH]ccc2c1)[C@H](Cc1ccccc1)n1cnc(-c2cc(Cl)ccc2-n2cc(Cl)nn2)cc1=O [Example 96, (S)-2-(4-(5-chloro-2-(4-chloro-1H-1,2,3-triazol-1-yl)phenyl)-6-oxopyrimidin-1(6H)-yl)-N-(1-oxo-1,2-dihydroisoquinolin-6-yl)-3-phenylpropanamide] | 13.6 µM |
| 12.8 nM |  | N#Cc1ccc(Cl)c(F)c1C1=CC(=O)N(C(Cc2ccccc2)C(=O)Nc2ccc(C(=O)O)cc2)CC1 (stereo not drawn) [Example 130, 4-{2-[4-(3-Chloro-6-cyano-2-fluorophenyl)-6-oxo-1,2,3,6-tetrahydropyridin-1-yl]-3-phenylpropanamido}benzoic Acid] | 17.5 µM |
| 0.64 nM | 36 nM | O=C(O)c1ccc(NC(=O)[C@H](Cc2ccccc2)n2cnc(-c3c(-n4cc(Cl)nn4)ccc(Cl)c3F)cc2=O)cc1 [Example 9, (S)-4-(2-(4-(3-chloro-6-(4-chloro-1H-1,2,3-triazol-1-yl)-2-fluorophenyl)-6-oxopyrimidin-1(6H)-yl)-3-phenylpropanamido)benzoic Acid] | 0.91 µM |
